Reference: patent publication US9422309B2, “3-O-heteroaryl-ingenol” (LEO LABORATORIES LIMITED, priority 2012, dated 2016)

Legend:
Format in all cases: cell-based
[1] = test system: Primary human epidermal keratinocytes, HeKa; experiment: HeKa cytokine release (IL-8); details: 6 h at 37° C., normalised to 1.5×10^−7 M PEP0005, read-out: HeKa cytokine release (IL-8) Rel EC50 range
Procedure: Primary human epidermal keratinocytes, HeKa, are seeded (10.000 cells/well) in 96-well plates the day before the assay. Test compounds are diluted in DMSO (dimethyl sulfoxide) and further diluted in assay medium and pipetted into wells of 96 well-plates containing HeKa cells. The plates are incubated for 6 h at 37° C. in humidified air with 5% CO2. Plates are centrifuged briefly to spin down cells at 4° C., the supernatant is removed and analysed by Meso Scale Discovery (MSD) 4-spot cytokine assay (Pro-inflammatory II Ultra Sensitive kit, MSD, MD, USA). The MSD assay employs a sandwich immunoassay format where capture antibodies are coated in a patterned array on the bottom of the wells of a 4-Spot-Multi-MSD plate. Standard samples are incubated in the MULTI-SPOT plates as well, and the cytokine (IL-8) binds to its corresponding capture antibody spot. The cytokine level is quantitated on a SECTOR™ Imager using a cytokine-specific Detection Antibody labelled with MSD SULFO-TAG™ reagent.
(§1) Test compound titration curves are fitted to a four-parameter sigmoidal curve after normalizing the effect of the test compound to the effect of the positive control (1.5×10^−7 M PEP0005). Rel EC50 denotes the concentration of test compound producing an effect that is midway between the fitted top and bottom.

[2] = test system: PMN's (polymorphonuclear leukocytes); experiment: Neutrophil oxidative burst; details: Leukocyte, 40 min; 40 min incubation at rt; normalised to 5×10^−7 M PEP0005; read-out: Neutrophil oxidative burst Rel EC50 range
Procedure: PMN's (polymorphonuclear leukocytes) are isolated and purified from fresh buffy coats by sequential sedimentation, density centrifugation and lysis of contaminating erythrocytes. In brief, buffy coats are incubated with 2% methocel for 30-45 min to differentially sediment red blood cells. The leukocyte-rich supernatant is transferred to lymphoprep tubes to remove mononuclear cells by density centrifugation (400×g, 30 min). The pellet is resuspended and any remaining erythrocytes lysed using 0.2% NaCl for 30 sec before restoring isotonicity by the addition of 1.2% NaCl. This step is repeated until the cell pellet appears relatively free of red blood cells. Cells are resuspended in DPBS (Dulbecco's Phosphate Buffered Saline) (w.o. Ca^2+, Mg^2+) and the concentration adjusted to 1.4×10^6 cells/ml in HBSS (Hanks Balanced Salt solution) (w Ca^2+, Mg^2+) containing 0.1% BSA (Bovine Serum Albumin) and 5 mM glucose just prior to assay initiation. Titrated reference and test compounds are pre-mixed with HE (Hydroethidine) (10 μM final assay concentration) before addition to 96-well plates containing 2.5×10^5 cells. Following 40 min incubation at rt, changes in the respiratory burst is estimated by measuring fluorescence at 579 nm (excitation: 485 nm) using an Envision plate reader.
as §1, with “(5×10^−7” for “(1.5×10^−7”, “bottom. Abs EC50 is the concentration of test compound that provokes a response corresponding to 50% of the maximal effect associated with the positive control (5×10^−7 M PEP0005).” for “bottom.”

HeLa cells = experiment: Necrosis assay; details: Homo sapiens, 0.5 h, 30 min at 37° C., PrestoBlue, normalised to 4 10^−4 M PEP0005/ingenol mebutate, read-out: HeLa necrosis EC50 range
Procedure: HeLa cells (ATCC CCL-002) were grown in minimal essential medium (Invitrogen catalog no. 42360) containing 10% fetal bovine serum, 100 IU/ml penicillin and 100 μg/ml streptomycin. 4,000-6,000 cells were seeded into 96-well black ViewPlates-plates, clear bottom, (Perkin Elmer) in 100 μl medium and incubated overnight. Compounds were dissolved and pre-diluted in DMSO in 96-well polypropylene plates (Greiner) in a concentration range of 15 μM to 600 μM. At the time of the experiment cell plates were placed on heating blocks at 37° C., medium was removed and 40 μl fresh, pre-warmed medium was added per well. Cells were incubated for 15 min before addition of compounds. In parallel, 3 μl of compounds were diluted with 197 μl growth medium on a Tecan freedom-EVO pipetting station using 250 μl/s pipetting speed, in order to ensure effective mixing of the highly concentrated compound solutions with the aqueous phase.
These pre-dilution plates were then equilibrated on heating blocks at 37° C. for 10 min. 80 μl pre-diluted compound were transferred manually to the corresponding wells containing HeLa cells yielding compound concentrations of 10 μM to 400 μM. Control conditions were 1% DMSO in growth medium (100% viability) and 400 μM ingenol mebutate in growth medium (0% viability). Plates were incubated on the heating blocks at 37° C. for 30 min. At the end of the incubation 10 μl PrestoBlue reagent (Invitrogen) were added to each well, plates were sealed with black seal, followed by incubation at 37° C. for 10 min with gentle shaking (150 rpm). Subsequently, plates were placed at room temperature for 20-30 min. Plates were read immediately after on an Envision Fluorescence reader (Perkin Elmer) with excitation at 535 nm and emission at 630 nm. Test compound titration curves were fitted to a four-parameter sigmoidal curve after normalizing the effect of the test compound to the effect of the positive control (4 10^−4 M PEP0005/ingenol mebutate). Abs EC50 denotes the concentration of test compound producing 50% effect.

Row | Compound | EC50 [1] [nM] | EC50 [2] [nM] | EC50 (HeLa cells) [nM]
1 | CC1=C[C@]23C(=O)[C@@H](C=C(CO)[C@@H](O)[C@]2(O)[C@H]1Oc1ncnc(Cl)c1C)[C@H]1[C@@H](C[C@H]3C)C1(C)C [Compound 101, 3-O-(6-Chloro-5-methyl-pyrimidin-4-yl)-ingenol] | < 20 | 20 to 100 | < 150000
2 | CC1=C[C@]23C(=O)[C@@H](C=C(CO)[C@@H](O)[C@]2(O)[C@H]1Oc1noc2ccccc12)[C@H]1[C@@H](C[C@H]3C)C1(C)C [Compound 102, 3-O-(1,2-Benzoxazol-3-yl)-ingenol] | < 20 | < 20 | 150000 to 350000
3 | CC1=C[C@]23C(=O)[C@@H](C=C(CO)[C@@H](O)[C@]2(O)[C@H]1Oc1ccc(C(F)(F)F)cn1)[C@H]1[C@@H](C[C@H]3C)C1(C)C [Compound 103, 3-O-(5-(Trifluoromethyl)-2-pyridyl)-ingenol] | 20 to 100 |  | 150000 to 350000
4 | C=CCc1c(Cl)ncnc1O[C@H]1C(C)=C[C@]23C(=O)[C@@H](C=C(CO)[C@@H](O)[C@]12O)[C@H]1[C@@H](C[C@H]3C)C1(C)C [Compound 104, 3-O-(5-Allyl-6-chloro-pyrimidin-4-yl)-ingenol] | < 20 | 20 to 100 | < 150000
5 | CC1=C[C@]23C(=O)[C@@H](C=C(CO)[C@@H](O)[C@]2(O)[C@H]1Oc1ncccc1C=O)[C@H]1[C@@H](C[C@H]3C)C1(C)C [Compound 105, 3-O-(3-Formyl-2-pyridyl)-ingenol] | ≥ 100 | ≥ 100 | ≥ 350000
6 | CC1=C[C@]23C(=O)[C@@H](C=C(CO)[C@@H](O)[C@]2(O)[C@H]1Oc1ccccn1)[C@H]1[C@@H](C[C@H]3C)C1(C)C [Compound 106, 3-O-(2-Pyridyl)-ingenol] | 20 to 100 | ≥ 100 | ≥ 350000
7 | CC1=C[C@]23C(=O)[C@@H](C=C(CO)[C@@H](O)[C@]2(O)[C@H]1Oc1nn(C)c2ccccc12)[C@H]1[C@@H](C[C@H]3C)C1(C)C [Compound 107, 3-O-(1-Methylindazol-3-yl)-ingenol] | ≥ 100 | ≥ 100 | 150000 to 350000
8 | CC1=C[C@]23C(=O)[C@@H](C=C(CO)[C@@H](O)[C@]2(O)[C@H]1Oc1nccn1C)[C@H]1[C@@H](C[C@H]3C)C1(C)C [Compound 108, 3-O-(1-Methylimidazol-2-yl)-ingenol] | ≥ 100 | ≥ 100 | ≥ 350000
9 | C=CCn1ccnc1O[C@H]1C(C)=C[C@]23C(=O)[C@@H](C=C(CO)[C@@H](O)[C@]12O)[C@H]1[C@@H](C[C@H]3C)C1(C)C [Compound 109, 3-O-(1-Allylimidazol-2-yl)-ingenol] |  | 20 to 100 | ≥ 350000
10 | CC1=C[C@]23C(=O)[C@@H](C=C(CO)[C@@H](O)[C@]2(O)[C@H]1Oc1ncc(C(F)(F)F)cn1)[C@H]1[C@@H](C[C@H]3C)C1(C)C [Compound 110, 3-O-(5-(Trifluoromethyl)-pyrimidin-2-yl)-ingenol] | ≥ 100 | ≥ 100 | ≥ 350000
11 | CC1=C[C@]23C(=O)[C@@H](C=C(CO)[C@@H](O)[C@]2(O)[C@H]1Oc1cc(Br)ccn1)[C@H]1[C@@H](C[C@H]3C)C1(C)C [Compound 111, 3-O-(4-Bromo-2-pyridyl)-ingenol] | 20 to 100 | 20 to 100 | 150000 to 350000
12 | CC1=C[C@]23C(=O)[C@@H](C=C(CO)[C@@H](O)[C@]2(O)[C@H]1Oc1ncccc1F)[C@H]1[C@@H](C[C@H]3C)C1(C)C [Compound 112, 3-O-(3-Fluoro-2-pyridyl)-ingenol] | ≥ 100 | 20 to 100 | ≥ 350000
13 | CC1=C[C@]23C(=O)[C@@H](C=C(CO)[C@@H](O)[C@]2(O)[C@H]1Oc1cc(C(F)(F)F)ccn1)[C@H]1[C@@H](C[C@H]3C)C1(C)C [Compound 113, 3-O-(4-(Trifluoromethyl)-2-pyridyl)-ingenol] | 20 to 100 | 20 to 100 | 150000 to 350000
14 | CC1=C[C@]23C(=O)[C@@H](C=C(CO)[C@@H](O)[C@]2(O)[C@H]1Oc1nccc(C(F)(F)F)n1)[C@H]1[C@@H](C[C@H]3C)C1(C)C [Compound 114, 3-O-(4-(Trifluoromethyl)-pyrimidin-2-yl)-ingenol] | ≥ 100 | ≥ 100 | ≥ 350000
15 | CC1=C[C@]23C(=O)[C@@H](C=C(CO)[C@@H](O)[C@]2(O)[C@H]1Oc1ncccc1Cl)[C@H]1[C@@H](C[C@H]3C)C1(C)C [Compound 115, 3-O-(3-Chloro-2-pyridyl)-ingenol] | 20 to 100 | 20 to 100 | 150000 to 350000
16 | CC1=C[C@]23C(=O)[C@@H](C=C(CO)[C@@H](O)[C@]2(O)[C@H]1Oc1ncccc1C#N)[C@H]1[C@@H](C[C@H]3C)C1(C)C [Compound 116, 3-O-(3-Cyano-2-pyridyl)-ingenol] | ≥ 100 | 20 to 100 | ≥ 350000
17 | CC1=C[C@]23C(=O)[C@@H](C=C(CO)[C@@H](O)[C@]2(O)[C@H]1Oc1cccc(C(F)(F)F)n1)[C@H]1[C@@H](C[C@H]3C)C1(C)C [Compound 117, 3-O-(6-(Trifluoromethyl)-2-pyridyl)-ingenol] | ≥ 100 | ≥ 100 | ≥ 350000
18 | CC1=C[C@]23C(=O)[C@@H](C=C(CO)[C@@H](O)[C@]2(O)[C@H]1Oc1ncccc1C(F)(F)F)[C@H]1[C@@H](C[C@H]3C)C1(C)C [Compound 118, 3-O-(3-(Trifluoromethyl)-2-pyridyl)-ingenol] | 20 to 100 | < 20 | < 150000
19 | CC1=C[C@]23C(=O)[C@@H](C=C(CO)[C@@H](O)[C@]2(O)[C@H]1Oc1nccn1CC(F)F)[C@H]1[C@@H](C[C@H]3C)C1(C)C [Compound 121, 3-O-(1-(2,2-Difluoroethyl)imidazol-2-yl)-ingenol] | ≥ 100 | 20 to 100 | 
20 | CC1=C[C@]23C(=O)[C@@H](C=C(CO)[C@@H](O)[C@]2(O)[C@H]1Oc1nccn1CCF)[C@H]1[C@@H](C[C@H]3C)C1(C)C [Compound 122, 3-O-(1-(2-Fluoroethyl)imidazol-2-yl)-ingenol] | ≥ 100 | ≥ 100 | 
21 | CC1=C[C@]23C(=O)[C@@H](C=C(CO)[C@@H](O)[C@]2(O)[C@H]1Oc1nccc2occc12)[C@H]1[C@@H](C[C@H]3C)C1(C)C [Compound 126, 3-O-(Furo[3,2-c]pyridine-4-yl)-ingenol] |  | 20 to 100 | 150000 to 350000
